We go through nine molecules from US20240216376A1, “COMBINATION THERAPIES FOR THE TREATMENT OF CANCER” (Duke University, priority 2021, published 2024).

One assay deals with AML cell lines. Description: Short-term drug sensitivity assay (GI50), selinexor plus background drug. It counts as cell-based. The following applies: fixed-concentration background drug; for sensitization to selinexor (relative selinexor GI50), AKT or MEK/ERK inhibitor background: panel of eight AML cell lines, 72 hours; for sensitization to selinexor (relative selinexor GI50), PI3K isoform-specific inhibitor background: panel of AML cell lines. On the procedure:
Short-term cell viability assays were conducted. Briefly, AML cells were seeded at a density of 7,500 cells/well, treated with vehicle (DMSO) or a 10-fold serial dilution of selinexor (individually or combination with fixed-concentration background drug) and assessed for viability after 72-hours using Cell Titer Glo (Promega). The relative cell viability was determined by normalizing the raw luminescence values for each treatment condition to either the DMSO-treated well (selinexor individually) or the background drug only well (selinexor combinations). GI50 values approximate the concentration of selinexor required to inhibit growth of cells by 50%. Values were interpolated from dose-response curves plotted using GraphPad/Prism 8 software.

For assay [1], the system named is AKT. Description: Western immunoblot of AKT phosphorylation in AML cell lines. It counts as cell-based. On the procedure: (§1) Protein lysates were prepared with 1×CST Lysis Buffer (CST #9803) supplemented with 1× cOmplete protease inhibitor cocktail (Roche #04693124001) and 1× PhosSTOP phosphatase inhibitor (Roche #04906837001). Crude lysates were rotated for 15 minutes with lysis buffer, cleared by centrifugation at 13,000 rpm for 10 minutes at 4° C. and normalized by total protein content using standard Bradford analysis. Membranes were probed with primary antibodies β-actin (13E5) (CST #4970 diluted 1:5000 in 5% BSA), p-AKT T308 (244F9) (CST #4056 diluted 1:1000 in 5% BSA), p-AKT S473 (D9E) (CST #4060 diluted 1:1000 in 5% BSA), T-AKT (C67E7) (CST #4691 diluted 1:3000 in 5% BSA), p-GSK3B S9 (D85E12) (CST #5558 diluted 1:1000 in 5% BSA), p-BAD S136 (D25H8) (CST #4366 diluted 1:1000 in 5% BSA), CRM1 (C-1) (sc #74454 diluted 1:100 in 5% BSA), cleaved-PARP (D64E10) (CST #5625 diluted 1:1000 in 5% BSA), cleaved-Caspase3 D175 (CST #9661 diluted 1:500 in 5% BSA), p110-g (D55D5) (CST #5405 diluted 1:1000 in 5% BSA), p110α (C73F8) (CST #4249 diluted 1:1000 in 5% BSA), p110β (C33D4) (CST #3011 diluted 1:1000 in 5% BSA), p1108 (D1Q7R) (CST #34050 diluted 1:1000 in 5% BSA) or p101 (D32A5) (CST #5569 diluted 1:1000 in 5% BSA) overnight (16 hours). Following incubation with HRP-conjugated secondary antibody, blots were developed with SuperSignal West Pico PLUS Chemiluminescent Substrate (ThermoFisher) or ECL Western Blotting Substrate (ThermoFisher).
To validate selinexor's ability to activate PI3K/AKT signaling, each of five AML cell lines was treated with selinexor for 24 hours before performing western blot analysis. […] Additional AKT-dependent phosphorylation marks on PRAS40, FOXO3a, and TSC2 were also assessed in OCI-AML2 cells and found to be increased. This phosphorylation pattern was indicative of activated AKT signaling. To characterize the kinetics of selinexor-induced AKT activation, AML cells were treated with selinexor and collected samples at interval time points up to 48 hours. Across multiple cell lines, activation of AKT signaling was observed starting at 8-24 hours (FIG. 2B). […] The delays between treatment and AKT activation, observed both in vivo and in vitro, were not inconsistent with the presumption that selinexor primarily acts through transcriptional mechanisms. Finally, to assess the exclusivity of these findings for selinexor, cells were treated with a panel of eight additional anti-leukemic drugs for 24 hours.
A general note: A western blot detects proteins with antibodies after separation by electrophoresis.

The next assay concerns RAS. In words: Ras-GTP immunoprecipitation (RAF1-RBD pulldown). The format is cell-based. The text has this: Active GTP bound Ras was pulled down and detected using the Active Ras Pull-Down and Detection Kit (Thermo Scientific, #16117) according to manufacturer's instruction. At least 10×10^6 cells were used in pull-down and lysates were normalized to ensure equal protein input across DMSO and selinexor-treated samples within each cell line.

The next assay has as its system P2RY2. Description: qRT-PCR of P2RY2 expression. The format is cell-based. The method, then:
RNA was isolated from whole cells with the RNEasy Mini kit (Qiagen). cDNA was reverse transcribed from total RNA samples using iScript cDNA Synthesis Kit with 1 μg of RNA template. qRT-PCR was carried out using iQ SYBR Green Supermix and a CFX384 Touch Real-Time PCR Detection System, according to manufacturer instructions. Fold expression was determined by normalizing cycle threshold (Cq) values to ACTB reference gene and normalizing samples to control sample, in accordance with the ΔΔCq method.
(Real-time PCR tracks product formation cycle by cycle.)

Assay [2] deals with OCI-AML2 cells. In words: Pooled CRISPR selinexor sensitizer screen, selinexor dose (approx. GI50). The format is cell-based. Conditions: Homo sapiens, 336 h, two-week screen period, approximate, read-out: GI50 concentration. The method, then:
Virus production, titering and transduction was performed as previously described. In short, viral titer (Infectious Units (IFU)/mL) was found by transducing OCI-AML2 cells with a 1:3 dilution series of library virus, selecting cells with puromycin for 2 days and determining multiplicity of infection (MOI) from % of cells infected. Viral titer is equal to (#cells seeded*MOI*Virus dilution factor)/(Volume of virus added to each well). […] For the selinexor sensitizer screen, selinexor was dosed at 100 nM, a concentration that yielded sufficient selective pressure without excessive cell death (approximately the GI50 concentration) over the two-week screen period. […] Genomic DNA was extracted using the DNeasy Blood & Tissue Kit (Qiagen) from 25×10^6 cell samples taken prior to dividing cells into treatment conditions (time zero) and after completion of the two-week screen. Amplification of the sgRNA barcodes and indexing of each sample was performed via 2-step PCR as previously described.

Assay [3] is classed as in vivo. The following applies: selinexor 15 mg/kg in mice.
Description: Animals transplanted with these AML cells were treated with the combination of selinexor (15 mg/kg, oral gavage) and ipatasertib (65 mg/kg, oral gavage) or either drug alone every other day for ten days.
The subject of assay [4] is OCI-AML2 cells. Description: Reverse phase protein array (RPPA) analysis. It counts as cell-based. The method, then: OCI-AML2 cells were treated with DMSO or selinexor for 3, 24 and 48-hours at which point 3×10^6 cells were pelleted and frozen at -80° C. RPPA analysis was performed as previously described. All samples were conducted in biological triplicate and normalized to DMSO control at each respective timepoint. Next, it was sought to identify the signaling nodes activated by selinexor treatment. To do this, a reverse phase protein array (RPPA) was used to analyze AML cells treated with DMSO or selinexor for 48 hours, using a dose of selinexor sufficient to provide an on-target effect but not high enough to impose a meaningful selective pressure. The RPPA platform, which provides quantitative measurements of 160 epitopes and phospho-epitopes representing cellular growth, proliferation, and signaling pathways, identified many drug-induced effects, several of which supported previously described mechanisms of selinexor activity. […] (FIG. 1C). […] In addition to corroborating selinexor's established effects, the RPPA data was able to identify selinexor-induced downregulations of phospho-S6 at Ser235/236 and Ser240/244, phospho-elF4G at […], and phospho-4E-BP1 at […], which collectively pointed to suppression of mTORC1 signaling (FIG. 1C). This idea has been raised in multiple myeloma and was further supported here by the reciprocal upregulation of DEPTOR, a negative regulator of mTOR.

Assay [5] relates to AKT. In words: AKT activation in vivo, syngeneic MLL-AF9-driven model of AML. The following applies: MLL-AF9 cells from treated mice.
The test system of the next assay is MAPK signaling. In words: Western blot of MAPK signaling in AML cell lines. It counts as cell-based. The following applies: multiple AML cell lines. The method, then:
as §1, with “Following incubation with HRP-conjugated secondary antibody, blots were developed with SuperSignal West Pico PLUS Chemiluminescent Substrate (ThermoFisher) or ECL Western Blotting Substrate (ThermoFisher).” left out

A further assay deals with extracellular ATP. Description: Extracellular ATP release in presence of ARL67156. Conditions: 36 hours, with ectonucleotidase inhibitor ARL67156, normalized for cell quantity. It counts as cell-based. On the procedure:
To assess the role of P2RY2 in selinexor-induced AKT activation, the ability of P2RY2 to activate AKT in the AML cell lines was first tested by culturing cells in the presence of exogenous ATP or UTP. Cells cultured with exogenous ATP activated AKT signaling while cells cultured with exogenous UTP only minimally activated AKT, if at all, prompting the possibility that selinexor may activate AKT signaling through induced release of extracellular ATP. This was tested by treating cells with selinexor versus vehicle in the presence of the ectonucleotidase inhibitor ARL67156 and quantifying the amount of extracellular ATP released after 36 hours.

Regarding `CC(C)NC[C@@H](C(=O)N1CCN(c2ncnc3c2[C@H](C)C[C@H]3O)CC1)c1ccc(Cl)cc1` [ipatasertib], in the assay with AML cell lines, the “sensitization to selinexor (relative selinexor GI50), AKT or MEK/ERK inhibitor background” value is given as “capable of sensitizing all eight of the AML cell lines tested to selinexor”.

As for `Cc1cc(C(C)Nc2ccccc2)c2nc(N3CCOCC3)cc(=O)n2c1` (stereo not shown) [TGX-221], the “sensitization to selinexor (relative selinexor GI50), PI3K isoform-specific inhibitor background” value with AML cell lines is “unable to sensitize any of the cell lines to selinexor”.

For `Cc1ccc2c(c1)C=Cc1cc(C)ccc1C2c1cn(Cc2ccc(C(=O)Nc3nn[nH]n3)o2)c(=O)[nH]c1=S` [AR-C118925XX], the “p-AKT T308 in FLT3-mutant expressing cells” value in the assay on AKT [1] (OCI-AML2 cells expressing D835Y-mutant FLT3) is on record as “reduced but did not completely ablate the elevated p-AKT T308 signal”. The “p-AKT T308, baseline” value with AKT [1] (OCI-AML2 cells expressing GFP, western blot) was “suppressed p-AKT T308”. In addition, in the assay with RAS (OCI-AML2, AR-C added to selinexor), the “effect on selinexor-induced GTP-RAS” value is “able to reverse the increased GTP-RAS”.

With `NC(=O)/C(=C/n1cnc(-c2cc(C(F)(F)F)cc(C(F)(F)F)c2)n1)c1cncnc1` [eltanexor], in the assay with AKT [1] (western blot of eltanexor-treated samples), the “AKT phosphorylation at Thr308 and Ser473 (second-generation CRM1 inhibitor)” value is “produced consistent phosphorylation of AKT at Thr308 and Ser473”.

On to `NC1(c2ccc(-c3nc4ccn5c(=O)[nH]nc5c4cc3-c3ccccc3)cc2)CCC1` [MK-2206], for which the “sensitization to selinexor (relative selinexor GI50), AKT or MEK/ERK inhibitor background” value in the assay on AML cell lines is “capable of sensitizing all eight of the AML cell lines tested to selinexor”.

As for `C[C@H](NC(=O)c1c(N)nn2cccnc12)c1cc2cccc(C#Cc3cnn(C)c3)c2c(=O)n1-c1ccccc1` [IPI-549], the “sensitization to selinexor (relative selinexor GI50), PI3K isoform-specific inhibitor background” value with AML cell lines is on record as “capable of sensitizing each AML cell line to selinexor”.

Turning to `Cc1nc(NC(=O)N2CCC[C@H]2C(N)=O)sc1-c1ccnc(C(C)(C)C(F)(F)F)c1` [BYL-719], in the assay on AML cell lines, the “sensitization to selinexor (relative selinexor GI50), PI3K isoform-specific inhibitor background” value is reported as “unable to sensitize any of the cell lines to selinexor”.

Regarding `O=C(/C=C\n1cnc(-c2cc(C(F)(F)F)cc(C(F)(F)F)c2)n1)NNc1cnccn1` [selinexor], in the assay on P2RY2 (each of five AML cell lines, vs DMSO control), the P2RY2 expression entry is “increased P2RY2 expression”. Besides, the “time course of P2RY2 transcriptional upregulation” value in the assay with P2RY2 (qRT-PCR, up to 48 hours) is “transcriptional upregulation of P2RY2 starting at 12 and increasing through 48 hours”. Besides, the “AKT phosphorylation at Thr308 and Ser473” value in the assay with AKT [1] (five AML cell lines, selinexor 24 hours, western blot) is “increased AKT phosphorylation at both Thr308 and Ser473”. In the assay with AKT [1] (multiple AML cell lines, time points up to 48 hours), the “start of activation of AKT signaling” value lay within 8 to 24 h. Further, in the assay with OCI-AML2 cells [2], the GI50 is approximately 100 nM. Moreover, the GTP-RAS result in the assay on RAS (five AML cell lines, selinexor- versus vehicle-treated) was “increased GTP-RAS”. In addition, the on-target response result in [3] is recorded as “induction of p53”. In addition, the “RPPA expression of phospho-AKT (Thr308 and Ser473)” value with OCI-AML2 cells [4] (OCI-AML2 cells, 48 hours selinexor vs DMSO) is recorded as “two of the strongest upregulations identified by RPPA were reserved for AKT”. In the assay on OCI-AML2 cells [4] (selinexor- versus vehicle-treated cells), the “RPPA phospho-ERK at Thr202/Tyr204” value is given as “an increase in phopho-ERK at Thr202/Tyr204”. Besides, the “start of AKT activation after treatment” value in the assay on AKT [5] fell in the range of 6 to 8 h. Besides, the MAPK signaling result in the assay with MAPK signaling is listed as “activated MAPK signaling in a P2RY2 dependent manner”. In the assay with extracellular ATP, the “extracellular ATP released” value was “no increase in extracellular ATP”.

As to `CCn1c(-c2nonc2N)nc2c(C#CC(C)(C)O)ncc(OC[C@H]3CCCNC3)c21` [GSK690693], in the assay with AML cell lines, the “sensitization to selinexor (relative selinexor GI50), AKT or MEK/ERK inhibitor background” value is given as “capable of sensitizing all eight of the AML cell lines tested to selinexor”.
